ChEMBL document CHEMBL1150961, “Tenuecyclamides A-D, cyclic hexapeptides from the cyanobacterium Nostoc spongiaeforme var. tenue” (1998)

Test system: Paracentrotus lividus
Assay: Inhibition of sea urchin egg fertilization by sea urchin sperm assessed as inhibition of divided eggs
Type: functional

Structure (SMILES)	ED100
Cc1oc2nc1C(=O)NCc1nc(cs1)C(=O)N[C@@H](CC[S+](C)[O-])c1nc(cs1)C(=O)N[C@H]2C (stereo partly drawn) [TENUECYCLAMIDE D]	19.1 µM
CSCC[C@@H]1NC(=O)c2csc(n2)CNC(=O)c2nc(oc2C)[C@H](C)NC(=O)c2csc1n2 [TENUECYCLAMIDE C]	9 µM
Cc1oc2nc1C(=O)NC(C)c1nc(cs1)C(=O)NC(C)c1nc(cs1)C(=O)N[C@H]2C (stereo partly drawn) [TENUECYCLAMIDE A]	10.8 µM
